For 25 compounds, inhibition results are on record in patent US9701689B2, “Substituted pyridines and pyridazines as CCR10 receptor inhibitors” (KYOWA HAKKO KIRIN CO., LTD., priority 2012, dated 2017).

This test concerns the target T1, human CCR10 (Homo sapiens, UniProt P46092).
T1 construct: expressed in transfected cells; host or cells: KJMGER8 cells (Namalwa cell-derived line), beta-estradiol-induced; hCCR10G16 cells
T1 sequence (P46092 1-362): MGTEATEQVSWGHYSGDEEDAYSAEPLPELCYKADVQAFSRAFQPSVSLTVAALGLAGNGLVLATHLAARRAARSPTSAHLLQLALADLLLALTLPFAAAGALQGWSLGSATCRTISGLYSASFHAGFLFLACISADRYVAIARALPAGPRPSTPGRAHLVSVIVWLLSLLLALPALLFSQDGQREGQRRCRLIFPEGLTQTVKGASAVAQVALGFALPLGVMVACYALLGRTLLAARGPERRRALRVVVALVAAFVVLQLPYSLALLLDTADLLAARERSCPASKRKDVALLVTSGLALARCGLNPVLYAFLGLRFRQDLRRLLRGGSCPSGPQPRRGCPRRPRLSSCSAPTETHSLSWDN
As to the kind of experiment: CCR10 antagonistic effect: calcium assay of human CCR10 (CTACK-induced increase of intracellular calcium in hCCR10G16 cells). The format is cell-based. As to conditions: at a concentration of not more than 1000 nmol/L; human CCR10-expressing hCCR10G16 cells, 300 nmol/L CTACK added; read-out: inhibition of increase in the calcium ion concentration. The gist of the method: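 KJMGER8-derived hCCR10G16 cells (CCR10 plus Gα16, induced 24 h with 10 nmol/L β-estradiol), Fluo-3 loaded, preincubated with compound 30 min at 37 °C. Stimulated with CTACK (300 nmol/L solution before addition); calcium read ~5 min by FDSS, max−min fluorescence; % inhibition vs control.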

Each structure is given as a SMILES string.

As to `NS(=O)(=O)c1ncc(C(=O)N2CCC3(CC2)COc2ccccc23)c(Nc2cccc(Cl)c2)c1Cl` [Compound 307, 3-chloro-4-(3-chlorophenylamino)-5-(2H-spiro[benzofuran-3,4′-piperidine]-1′-ylcarbonyl)pyridine-2-sulfonamide], the inhibition at up to 1 µM is no less than 50%. In the case of `NS(=O)(=O)c1ncc(C(=O)N2CCC(c3ccccc3)CC2)c(Nc2cccc(Cl)c2)c1Cl` [Compound 308, 3-chloro-4-(3-chlorophenylamino)-5-(4-phenylpiperidine-1-carbonyl)pyridine-2-sulfonamide] it was no less than 50%. On to `Cc1ccc(Cl)cc1Nc1c(C(=O)N2CCC(c3ccccc3)CC2)cnc(S(N)(=O)=O)c1Cl` [Compound 309, 3-chloro-4-(5-chloro-2-methylphenylamino)-5-(4-phenylpiperidine-1-carbonyl)pyridine-2-sulfonamide], for which the inhibition at up to 1 µM was no less than 50%. In the case of `CCc1ccc(Nc2c(C(=O)N3CCC(c4ccc(F)cc4)CC3)cnc(S(N)(=O)=O)c2Cl)cc1` [Compound 310, 3-chloro-4-(4-ethylphenylamino)-5-[4-(4-fluorophenyl)piperidine-1-carbonyl]pyridine-2-sulfonamide] it was no less than 50%. In the case of `Cc1ccc(C(F)(F)F)cc1Nc1c(C(=O)N2CCC(c3ccc(F)cc3)CC2)cnc(S(N)(=O)=O)c1Cl` [Compound 311, 3-chloro-5-[4-(4-fluorophenyl)piperidine-1-carbonyl]-4-[2-methyl-5-(trifluoromethyl)phenylamino]pyridine-2-sulfonamide] it was no less than 50%. In the case of `NS(=O)(=O)c1ncc(C(=O)N2CCC(c3ccc(F)cc3)CC2)c(Nc2ccc(OC(F)F)cc2)c1Cl` [Compound 312, 3-chloro-4-[4-(difluoromethoxy)phenylamino]-5-[4-(4-fluorophenyl)piperidine-1-carbonyl]pyridine-2-sulfonamide] it was no less than 50%. With `COC1(c2ccc(F)cc2)CCN(C(=O)c2cnc(S(N)(=O)=O)c(Cl)c2Nc2cc(Cl)ccc2C)CC1` [Compound 313, 3-chloro-4-(5-chloro-2-methylphenylamino)-5-[4-(4-fluorophenyl)-4-methoxypiperidine-1-carbonyl]pyridine-2-sulfonamide], the inhibition at up to 1 µM was no less than 50%. In the case of `Cc1ccc(Cl)cc1Nc1c(C(=O)N2CC(c3ccc(F)cc3)C2)cnc(S(N)(=O)=O)c1Cl` [Compound 314, 3-chloro-4-(5-chloro-2-methylphenylamino)-5-[3-(4-fluorophenyl)azetidine-1-carbonyl]pyridine-2-sulfonamide] it was no less than 50%; in that of `Cc1cc(NS(=O)(=O)c2ncc(C(=O)N3CCC(c4ccc(F)cc4)CC3)c(Nc3cc(F)ccc3F)c2C)sn1` [Compound 315, 4-(2,5-difluorophenylamino)-5-[4-(4-fluorophenyl)piperidine-1-carbonyl]-3-methyl-N-(3-methylisothiazol-5-yl)pyridine-2-sulfonamide], no less than 50%. As to `Cc1cc(NS(=O)(=O)c2ncc(C(=O)N3CCC(c4ccc(F)cc4)CC3)c(Nc3ccc(F)cc3F)c2C)sn1` [Compound 316, 4-(2,4-difluorophenylamino)-5-[4-(4-fluorophenyl)piperidine-1-carbonyl]-3-methyl-N-(3-methylisothiazol-5-yl)pyridine-2-sulfonamide], the inhibition at up to 1 µM is no less than 50%.

For the compound `Cc1ccccc1Nc1c(C(=O)N2CCC(c3ccc(F)cc3)CC2)cnc(S(=O)(=O)Nc2ccn(C)n2)c1Cl` [Compound 317, 3-chloro-5-[4-(4-fluorophenyl)piperidine-1-carbonyl]-N-(1-methyl-1H-pyrazol-3-yl)-4-(o-tolylamino)pyridine-2-sulfonamide], the inhibition at up to 1 µM is no less than 50%. On to `Cc1cc([N+](=O)[O-])ccc1Nc1c(C(=O)N2CCC(c3ccc(F)cc3)CC2)cnc(S(N)(=O)=O)c1Cl` [Compound 318, 3-chloro-5-[4-(4-fluorophenyl)piperidine-1-carbonyl]-4-(2-methyl-4-nitrophenylamino)pyridine-2-sulfonamide], for which the inhibition at up to 1 µM is no less than 50%. Then `NS(=O)(=O)c1ncc(C(=O)N2CCC(c3ccc(F)cc3)CC2)c(Nc2cccc(Br)c2)c1Cl` [Compound 319, 4-(3-bromophenylamino)-3-chloro-5-[4-(4-fluorophenyl)piperidine-1-carbonyl]pyridine-2-sulfonamide], with no less than 50%; and `Cc1cc(C#N)c(Nc2c(C(=O)N3CCC(c4ccc(F)cc4)CC3)cnc(S(N)(=O)=O)c2Cl)cc1C` [Compound 320, 3-chloro-4-(2-cyano-4,5-dimethylphenylamino)-5-[4-(4-fluorophenyl)piperidine-1-carbonyl]pyridine-2-sulfonamide], with no less than 50%.

Take `COc1ccc(C#N)c(Nc2c(C(=O)N3CCC(c4ccc(F)cc4)CC3)cnc(S(N)(=O)=O)c2Cl)c1` [Compound 321, 3-chloro-4-(2-cyano-5-methoxyphenylamino)-5-[4-(4-fluorophenyl)piperidine-1-carbonyl]pyridine-2-sulfonamide]: the inhibition at up to 1 µM was no less than 50%. In the case of `N#Cc1ccc([N+](=O)[O-])cc1Nc1c(C(=O)N2CCC(c3ccc(F)cc3)CC2)cnc(S(N)(=O)=O)c1Cl` [Compound 322, 3-chloro-4-(2-cyano-5-nitrophenylamino)-5-[4-(4-fluorophenyl)piperidine-1-carbonyl]pyridine-2-sulfonamide] it was no less than 50%. In the case of `Cc1ccc(Cl)cc1Nc1c(C(=O)N2CCC3(CC2)COc2ccccc23)cnc(S(N)(=O)=O)c1Cl` [Compound 323, 3-chloro-4-(5-chloro-2-methylphenylamino)-5-(2H-spiro[benzofuran-3,4′-piperidin]-1′-ylcarbonyl)pyridine-2-sulfonamide] it was no less than 50%. Then `COc1ccc(Cl)c(Nc2c(C(=O)N3CCC(c4ccc(F)cc4)CC3)cnc(S(N)(=O)=O)c2Cl)c1` [Compound 324, 3-chloro-4-(2-chloro-5-methoxyphenylamino)-5-[4-(4-fluorophenyl)piperidine-1-carbonyl]pyridine-2-sulfonamide], with no less than 50%; and `NS(=O)(=O)c1ncc(C(=O)N2CCC(c3ccc(F)cc3)CC2)c(Nc2cc(F)ccc2Cl)c1Cl` [Compound 325, 3-chloro-4-(2-chloro-5-fluorophenylamino)-5-[4-(4-fluorophenyl)piperidine-1-carbonyl]pyridine-2-sulfonamide], with no less than 50%. Regarding `Cc1cnc(C)c(Nc2c(C(=O)N3CCC(c4ccc(F)cc4)CC3)cnc(S(N)(=O)=O)c2Cl)c1` [Compound 326, 3-chloro-4-(2,5-dimethylpyridin-3-ylamino)-5-[4-(4-fluorophenyl)piperidine-1-carbonyl]pyridine-2-sulfonamide], the inhibition at up to 1 µM was no less than 50%.

Consider `NS(=O)(=O)c1ncc(C(=O)N2CCC(c3ccc(F)cc3)CC2)c(Nc2ccc(Cl)nc2Cl)c1Cl` [Compound 327, 3-chloro-4-(2,6-dichloropyridin-3-ylamino)-5-[4-(4-fluorophenyl)piperidine-1-carbonyl]pyridine-2-sulfonamide], for which the inhibition at up to 1 µM was no less than 50%. Turning to `Cc1ccc(Nc2c(C(=O)N3CCC(c4ccc(F)cc4)CC3)cnc(S(N)(=O)=O)c2Cl)c(F)c1` [Compound 328, 3-chloro-4-(2-fluoro-4-methylphenylamino)-5-[4-(4-fluorophenyl)piperidine-1-carbonyl]pyridine-2-sulfonamide], the inhibition at up to 1 µM was no less than 50%.

On to `Cc1cc(S(C)(=O)=O)ccc1Nc1c(C(=O)N2CCC(c3ccc(F)cc3)CC2)cnc(S(N)(=O)=O)c1Cl` [Compound 329, 3-chloro-5-[4-(4-fluorophenyl)piperidine-1-carbonyl]-4-[2-methyl-4-(methylsulfonyl)phenylamino]pyridine-2-sulfonamide], for which the inhibition at up to 1 µM was no less than 50%.

On to `NS(=O)(=O)c1ncc(C(=O)N2CC(c3ccc(F)cc3)C2)c(NC2(c3ccccc3)CC2)c1Cl` [Compound 330, 3-chloro-5-[3-(4-fluorophenyl)azetidine-1-carbonyl]-4-(1-phenylcyclopropylamino)pyridine-2-sulfonamide], for which the inhibition at up to 1 µM is no less than 50%. Then `Cc1ccccc1Nc1c(C(=O)N2CCC(c3ccc(F)cc3)CC2)cnc(S(N)(=O)=O)c1C` [Compound 331, 5-[4-(4-fluorophenyl)piperidine-1-carbonyl]-3-methyl-4-(o-tolylamino)pyridine-2-sulfonamide], with no less than 50%.
